Experiments:
Assay type in all cases: in vivo
[1] = test system: redroot pigweed (Amaranthus retroflexus); assay: Test A preemergence, soil drench; details: approx. eleven days
Procedure: (§1) Seeds of barnyardgrass (Echinochloa crus-galli), crabgrass (Digitaria spp.), giant foxtail (Setaria viridis), morning glory (Ipomoea spp.), redroot pigweed (Amaranthus retroflexus) and velvetleaf (Abutilon theophrasti) were planted into a sandy loam soil and treated preemergence by soil drench with test chemicals formulated in a non-phytotoxic solvent mixture which included a surfactant. At the same time, these crop and weed species were also treated postemergence sprayed to runoff with test chemicals formulated in the same manner. Plants ranged in height from two to eighteen cm and were in the one- to two-leaf stage for the postemergence treatment. Treated plants and untreated controls were maintained in a greenhouse for approximately eleven days, after which time all treated plants were compared to untreated controls and visually evaluated for injury. Plant response ratings, summarized in Table A, are based on a 0 to 10 scale where 0 is no effect and 10 is complete control. A dash (-) response means no test results.

[2] = test system: velvetleaf (Abutilon theophrasti); assay: Test A preemergence, soil drench; details: approx. eleven days
Procedure: as §1

[3] = test system: crabgrass (Digitaria spp.); assay: Test A preemergence, soil drench; details: approx. eleven days
Procedure: as §1

[4] = test system: barnyardgrass (Echinochloa crus-galli); assay: Test A preemergence, soil drench; details: approx. eleven days
Procedure: as §1

[5] = test system: giant foxtail (Setaria viridis); assay: Test A preemergence, soil drench; details: approx. eleven days
Procedure: as §1

[6] = test system: morning glory (Ipomoea spp.); assay: Test A preemergence, soil drench; details: Morningglory, approx. eleven days
Procedure: as §1

[7] = test system: redroot pigweed (Amaranthus retroflexus); assay: Test A postemergence, sprayed to runoff; details: approx. eleven days
Procedure: as §1

[8] = test system: crabgrass (Digitaria spp.); assay: Test A postemergence, sprayed to runoff; details: approx. eleven days
Procedure: as §1

[9] = test system: barnyardgrass (Echinochloa crus-galli); assay: Test A postemergence, sprayed to runoff; details: approx. eleven days
Procedure: as §1

[10] = test system: giant foxtail (Setaria viridis); assay: Test A postemergence, sprayed to runoff; details: approx. eleven days
Procedure: as §1

Compound	Plant response rating (visual injury vs untreated controls) ([1]; Rate 500 g/ha)	Plant response rating (visual injury vs untreated controls) ([1]; Rate 2000 g/ha)	Plant response rating (visual injury vs untreated controls) ([2]; Rate 500 g/ha)	Plant response rating (visual injury vs untreated controls) ([2]; Rate 2000 g/ha)	Plant response rating (visual injury vs untreated controls) ([3]; Rate 500 g/ha)	Plant response rating (visual injury vs untreated controls) ([3]; Rate 2000 g/ha)	Plant response rating (visual injury vs untreated controls) ([4]; Rate 500 g/ha)	Plant response rating (visual injury vs untreated controls) ([4]; Rate 2000 g/ha)	Plant response rating (visual injury vs untreated controls) ([5]; Rate 500 g/ha)	Plant response rating (visual injury vs untreated controls) ([5]; Rate 2000 g/ha)	Plant response rating (visual injury vs untreated controls) ([6]; Rate 500 g/ha)	Plant response rating (visual injury vs untreated controls) ([6]; Rate 2000 g/ha)	Plant response rating (visual injury vs untreated controls) ([7]; Rate 500 g/ha)	Plant response rating (visual injury vs untreated controls) ([7]; Rate 2000 g/ha)	Plant response rating (visual injury vs untreated controls) ([8]; Rate 500 g/ha)	Plant response rating (visual injury vs untreated controls) ([8]; Rate 2000 g/ha)	Plant response rating (visual injury vs untreated controls) ([9]; Rate 500 g/ha)	Plant response rating (visual injury vs untreated controls) ([9]; Rate 2000 g/ha)	Plant response rating (visual injury vs untreated controls) ([10]; Rate 500 g/ha)	Plant response rating (visual injury vs untreated controls) ([10]; Rate 2000 g/ha)	further results
CC1CCc2cn(C3CCN(c4cccc(C(F)(F)F)c4)C3=O)nc21 (stereo not drawn) [Compound 11]	100	100	0	20	100	100	100	100	100	100	0	0	70	90	0	10	20	40	0	50	–
CC(C)(C)c1ccn(C2CCN(c3cccc(C(F)(F)F)c3)C2=O)n1 (stereo not drawn) [Example 3, 3-[3-(1,1-dimethylethyl)-1H-pyrazol-1-yl]-1-[3-(trifluoromethyl)phenyl]-2-pyrrolidinone]	–	–	–	–	–	–	–	–	–	–	–	–	–	–	–	–	–	–	–	–	Plant response rating (visual injury vs untreated controls) ([1]; Rate 250 g/ha): 100; Plant response rating (visual injury vs untreated controls) ([1]; Rate 1000 g/ha): 100; Plant response rating (visual injury vs untreated controls) ([2]; Rate 250 g/ha): 0; Plant response rating (visual injury vs untreated controls) ([2]; Rate 1000 g/ha): 0; Plant response rating (visual injury vs untreated controls) ([3]; Rate 250 g/ha): 100; Plant response rating (visual injury vs untreated controls) ([3]; Rate 1000 g/ha): 100; Plant response rating (visual injury vs untreated controls) ([4]; Rate 250 g/ha): 100; Plant response rating (visual injury vs untreated controls) ([4]; Rate 1000 g/ha): 100; Plant response rating (visual injury vs untreated controls) ([5]; Rate 250 g/ha): 100; Plant response rating (visual injury vs untreated controls) ([5]; Rate 1000 g/ha): 100; Plant response rating (visual injury vs untreated controls) ([6]; Rate 250 g/ha): 0; Plant response rating (visual injury vs untreated controls) ([6]; Rate 1000 g/ha): 0; Plant response rating (visual injury vs untreated controls) ([7]; Rate 250 g/ha): 60; Plant response rating (visual injury vs untreated controls) ([7]; Rate 1000 g/ha): 10; Plant response rating (visual injury vs untreated controls) ([8]; Rate 250 g/ha): 0; Plant response rating (visual injury vs untreated controls) ([8]; Rate 1000 g/ha): 0; Plant response rating (visual injury vs untreated controls) ([9]; Rate 250 g/ha): 20; Plant response rating (visual injury vs untreated controls) ([9]; Rate 1000 g/ha): 10; Plant response rating (visual injury vs untreated controls) ([10]; Rate 250 g/ha): 0; Plant response rating (visual injury vs untreated controls) ([10]; Rate 1000 g/ha): 10
CC(C)(C)c1ccn(C2SCN(c3cccc(C(F)(F)F)c3)C2=O)n1 (stereo not drawn) [Compound 1]	100	100	10	70	90	100	90	100	90	100	10	80	20	90	10	10	60	90	30	30	–
CC(C)(C)c1ccn(C2OCN(c3cccc(C(F)(F)F)c3)C2=O)n1 (stereo not drawn) [compound 9]	100	100	20	10	90	100	100	100	100	100	0	0	20	80	20	10	80	90	30	100	–
O=C1C(n2cc(Cl)c(C3CC3)n2)CCN1c1cccc(C(F)(F)F)c1 (stereo not drawn) [Compound 12]	0	40	0	0	0	60	0	0	0	30	0	0	0	0	0	0	0	0	0	0	–
CC(C)(C)c1ccn(C2CCN(c3cccc(I)c3)C2=O)n1 (stereo not drawn) [Compound 88]	100	100	0	30	80	100	40	100	70	100	0	30	80	100	20	40	30	80	40	90	–
